The text below walks through data of ChEMBL document CHEMBL1158401, “Development of CoMFA and CoMSIA models of affinity and selectivity for indole ligands of cannabinoid CB1 and CB2 receptors” (Eur J Med Chem, 2009).

Broadly, the Ki is a measure of affinity in units of concentration, obtained from inhibition or displacement. Read a high Ki as lower affinity.

A short description of experiment [1]: Selectivity ratio of pKi for human cloned CB2 receptor to pKi for CB1 receptor in rat brain. It counts as tissue-based.
Experiment [2] in a line: Selectivity ratio of pKi for CB1 receptor in rat brain to pKi for human cloned CB2 receptor. In kind it is tissue-based.
A further experiment concerns the target Cannabinoid receptor 2 (Homo sapiens, UniProt P34972). The experiment in a line: Displacement of [3H]CP-55940 from human cloned CB2 receptor by filtration assay. For orientation: Loss of bound radioactivity is the signal in a displacement assay; it reports binding, not function.
The next experiment deals with Cannabinoid receptor 1 (Rattus norvegicus, UniProt P20272). Nature of the experiment: Displacement of [3H]CP-55940 from CB1 receptor in rat brain by filtration assay. In kind it is tissue-based.
Sequence of Cannabinoid receptor 1 (P20272 whole entry): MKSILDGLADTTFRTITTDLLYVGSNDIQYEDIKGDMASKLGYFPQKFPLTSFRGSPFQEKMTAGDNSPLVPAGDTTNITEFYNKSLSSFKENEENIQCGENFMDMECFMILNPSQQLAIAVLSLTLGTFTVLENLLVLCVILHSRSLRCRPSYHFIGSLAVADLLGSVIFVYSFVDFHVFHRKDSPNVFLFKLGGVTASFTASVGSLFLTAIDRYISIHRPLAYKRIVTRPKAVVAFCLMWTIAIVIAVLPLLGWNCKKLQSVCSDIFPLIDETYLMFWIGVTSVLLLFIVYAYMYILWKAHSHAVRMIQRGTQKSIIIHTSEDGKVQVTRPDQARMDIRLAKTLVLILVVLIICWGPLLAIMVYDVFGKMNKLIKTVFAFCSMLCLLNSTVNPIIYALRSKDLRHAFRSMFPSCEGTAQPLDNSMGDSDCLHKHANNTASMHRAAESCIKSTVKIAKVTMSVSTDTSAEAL

Sequence of Cannabinoid receptor 2 (P34972 whole entry): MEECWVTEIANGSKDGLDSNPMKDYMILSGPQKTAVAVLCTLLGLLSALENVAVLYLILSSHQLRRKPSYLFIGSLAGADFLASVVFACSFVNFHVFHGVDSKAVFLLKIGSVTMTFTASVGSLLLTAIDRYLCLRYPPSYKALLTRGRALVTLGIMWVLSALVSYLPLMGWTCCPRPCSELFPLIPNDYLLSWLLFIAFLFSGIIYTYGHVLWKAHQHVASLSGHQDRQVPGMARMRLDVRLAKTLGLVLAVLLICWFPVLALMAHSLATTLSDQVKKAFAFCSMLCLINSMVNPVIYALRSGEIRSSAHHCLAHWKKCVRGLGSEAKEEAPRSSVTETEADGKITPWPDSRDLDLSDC

As for `CCCCCn1c(C)c(C(=O)Cc2ccc(C)cc2)c2ccccc21`, the figures for the Ratio pKi in experiment [1] and in experiment [2] were 0.957 and 1.04, respectively.

For `CCCCCn1c(C)c(C(=O)c2ccc(OCC)c3ccccc23)c2ccccc21`, the results for the Ratio pKi in experiment [1] and in experiment [2] were 1.01 and 0.991, respectively.

For `CCCCCn1c(C)c(C(=O)Cc2ccccc2OC)c2ccccc21`, the Ratio pKi in experiment [1] was 0.932; in experiment [2] it was 1.07.

On to `CCCn1c(C)c(C(=O)c2ccc(OCC)c3ccccc23)c2ccccc21`, for which the values for the Ratio pKi in experiment [1] and in experiment [2] were 1.09 and 0.919, respectively.

With `CCCn1cc(C(=O)c2cccc3ccc(OC)cc23)c2ccccc21`, the Ratio pKi in experiment [1] is 1.07; in experiment [2] it was 0.936.

`CCCCCn1c(C)c(C(=O)c2cccc3ccc(CC)cc23)c2ccccc21`: the figures for the Ratio pKi in experiment [1] and in experiment [2] were 1.09 and 0.915, respectively.

On to `CCCCc1ccc(C(=O)c2cn(CCC)c3ccccc23)c2ccccc12`, for which the Ratio pKi in experiment [1] amounted to 1.13; in experiment [2] it was 0.888.

Consider `CCCn1cc(C(=O)c2ccc(C)c3ccccc23)c2ccccc21`, for which the Ratio pKi in experiment [1] was found to be 1.37; in experiment [2], 0.728.

Consider `CCCCCn1cc(C(=O)c2cccc3ccc(OC)cc23)c2ccccc21`, for which the Ratio pKi in experiment [1] was 0.997; in experiment [2] it was 1.

As to `CCCCCn1cc(C(=O)c2ccc(OC)c3ccccc23)c2ccccc21`, the Ratio pKi in experiment [1] was 0.886; in experiment [2], 1.13. For the same compound, the Ki was 12.4 nM at Cannabinoid receptor 2 and 1.2 nM on Cannabinoid receptor 1.

`CCCn1c(C)c(C(=O)c2cccc3ccc(CC)cc23)c2ccccc21`: the Ratio pKi came out at 1.13 in experiment [1] and 0.887 in experiment [2].

For `CCCCCn1cc(C(=O)Cc2cccc(F)c2)c2ccccc21`, the Ratio pKi was determined as 0.985 in experiment [1] and 1.01 in experiment [2].

Take `CCCCc1ccc(C(=O)c2c(C)n(CCC)c3ccccc23)c2ccccc12`: the Ratio pKi in experiment [1] was 1.07; in experiment [2], 0.935.

`CCCn1cc(C(=O)c2cccc3ccccc23)c2ccccc21`: the Ratio pKi turned out to be 1.13 in experiment [1] and 0.883 in experiment [2]. Also, the values for the Ki at Cannabinoid receptor 2 and on Cannabinoid receptor 1 were 170 nM and 1050 nM, respectively.

With `CCCCCn1cc(C(=O)Cc2ccccc2C)c2ccccc21`, the Ratio pKi was determined as 0.906 in experiment [1] and 1.1 in experiment [2].

`CCCCCn1cc(C(=O)c2cccc3ccc(CC)cc23)c2ccccc21`: the figures for the Ratio pKi in experiment [1] and in experiment [2] were 1.04 and 0.959, respectively.

For `CCCCCn1c(C)c(C(=O)c2cccc3ccc(C)cc23)c2ccccc21`, the Ratio pKi in experiment [1] is 1.17; in experiment [2], 0.856. For the same compound, the Ki at Cannabinoid receptor 2 was 0.49 nM; at Cannabinoid receptor 1, 10.7 nM.

Take `CCCCCn1cc(C(=O)c2ccc(CC)c3ccccc23)c2ccccc21`: the figures for the Ratio pKi in experiment [1] and in experiment [2] were 0.981 and 1.02, respectively.

With `CCCCCn1c(C)c(C(=O)Cc2cccc(OC)c2)c2ccccc21`, the results for the Ratio pKi in experiment [1] and in experiment [2] were 0.981 and 1.02, respectively.

Regarding `CCCc1ccc(C(=O)c2cn(CCC)c3ccccc23)c2ccccc12`, the Ratio pKi was 1.06 in experiment [1] and 0.946 in experiment [2].

Take `CCCCCn1c(C)c(C(=O)c2ccc(C)c3ccccc23)c2ccccc21`: the Ratio pKi in experiment [1] is 1.1; in experiment [2], 0.909. In addition, the affinity on Cannabinoid receptor 1, expressed as Ki, was 5 nM.

`CCCCCn1cc(C(=O)Cc2ccc(OC)cc2)c2ccccc21`: the values for the Ratio pKi in experiment [1] and in experiment [2] were 1.06 and 0.94, respectively.

In the case of `CCCCCn1c(C)c(C(=O)Cc2ccccc2F)c2ccccc21`, the Ratio pKi in experiment [1] amounted to 0.96; in experiment [2], 1.04.

As to `CCCCCn1cc(C(=O)Cc2ccccc2OC)c2ccccc21`, the figures for the Ratio pKi in experiment [1] and in experiment [2] were 0.94 and 1.06, respectively.

As to `CCCCCn1cc(C(=O)c2ccc(C)c3ccccc23)c2ccccc21`, the Ratio pKi in experiment [1] stood at 0.973; in experiment [2], 1.03. This compound also showed a Ki on Cannabinoid receptor 1 of 0.69 nM.

As to `CCCCCn1cc(C(=O)c2ccc(CCC)c3ccccc23)c2ccccc21`, the Ratio pKi in experiment [1] is 0.975; in experiment [2], 1.02.

Take `CCCCCn1c(C)c(C(=O)c2c(OC)ccc3ccccc23)c2ccccc21`: the values for the Ratio pKi in experiment [1] and in experiment [2] were 1.26 and 0.792, respectively.

For the compound `CCCn1cc(C(=O)c2ccc(OC)c3ccccc23)c2ccccc21`, the figures for the Ratio pKi in experiment [1] and in experiment [2] were 1.04 and 0.961, respectively. The results for the Ki at Cannabinoid receptor 2 and on Cannabinoid receptor 1 were 32 nM and 63.1 nM, respectively.

Take `CCCn1c(C)c(C(=O)c2ccc(CC)c3ccccc23)c2ccccc21`: the Ratio pKi in experiment [1] was 1.11; in experiment [2] it was 0.903.

On to `CCCCCn1cc(C(=O)Cc2ccc(F)cc2)c2ccccc21`, for which the Ratio pKi in experiment [1] was determined as 1.01; in experiment [2] it was 0.99.

Turning to `CCCCCn1cc(C(=O)Cc2ccccc2Br)c2ccccc21`, the Ratio pKi in experiment [1] was 0.953; in experiment [2], 1.05.

As to `CCCCCn1c(C)c(C(=O)Cc2cccc(F)c2)c2ccccc21`, the Ratio pKi in experiment [1] is 1.06; in experiment [2], 0.945.

For `CCCn1c(C)c(C(=O)c2cccc3ccc(OC)cc23)c2ccccc21`, the Ratio pKi in experiment [1] came to 1.09; in experiment [2] it was 0.913.

In the case of `CCCn1cc(C(=O)c2ccc(CC)c3ccccc23)c2ccccc21`, the results for the Ratio pKi in experiment [1] and in experiment [2] were 1.07 and 0.935, respectively.

Regarding `CCCCCn1cc(C(=O)Cc2ccccc2F)c2ccccc21`, the Ratio pKi in experiment [1] came out at 0.969; in experiment [2] it was 1.03.

Take `CCCCCn1cc(C(=O)c2cccc3cc(OC)ccc23)c2ccccc21`: the Ratio pKi is 1.19 in experiment [1] and 0.843 in experiment [2].

For `CCCCCn1c(C)c(C(=O)c2ccc(CCC)c3ccccc23)c2ccccc21`, the Ratio pKi came out at 1.04 in experiment [1] and 0.965 in experiment [2].

`CCCCCn1c(C)c(C(=O)Cc2ccc(OC)cc2)c2ccccc21`: the Ratio pKi in experiment [1] was 1.07; in experiment [2], 0.933.

In the case of `CCCn1c(C)c(C(=O)c2ccc(C)c3ccccc23)c2ccccc21`, the Ratio pKi was found to be 1.14 in experiment [1] and 0.88 in experiment [2].

For the compound `CCCCCn1c(C)c(C(=O)Cc2ccccc2Cl)c2ccccc21`, the Ratio pKi in experiment [1] is 0.963; in experiment [2] it was 1.04.

With `CCCCCn1cc(C(=O)Cc2ccccc2)c2ccccc21`, the Ratio pKi in experiment [1] stood at 0.964; in experiment [2], 1.04.

In the case of `CCCCCn1cc(C(=O)Cc2ccc(Cl)cc2)c2ccccc21`, the Ratio pKi in experiment [1] amounted to 0.983; in experiment [2], 1.02.

As to `CCCCCn1c(C)c(C(=O)c2ccc(CC)c3ccccc23)c2ccccc21`, the values for the Ratio pKi in experiment [1] and in experiment [2] were 1.06 and 0.941, respectively.

As to `CCCCCn1c(C)c(C(=O)c2cccc3cc(OC)ccc23)c2ccccc21`, the Ratio pKi in experiment [1] is 1.21; in experiment [2], 0.83.

For the compound `CCCn1cc(C(=O)c2cccc3ccc(C)cc23)c2ccccc21`, the Ratio pKi was 1.04 in experiment [1] and 0.956 in experiment [2].

Turning to `CCCCCn1c(C)c(C(=O)Cc2ccc(Cl)cc2)c2ccccc21`, the Ratio pKi in experiment [1] was 0.936; in experiment [2], 1.07.

As for `CCCCCn1c(C)c(C(=O)Cc2ccccc2)c2ccccc21`, the Ratio pKi in experiment [1] stood at 0.976; in experiment [2], 1.02.

On to `CCCCCn1cc(C(=O)c2cccc3ccccc23)c2ccccc21`, for which the Ratio pKi in experiment [1] came to 1.06; in experiment [2], 0.942. In addition, the Ki on Cannabinoid receptor 2 is 2.9 nM; at Cannabinoid receptor 1, 9.02 nM.

In the case of `CCCCCn1cc(C(=O)c2ccc(CCCC)c3ccccc23)c2ccccc21`, the Ratio pKi in experiment [1] stood at 1.04; in experiment [2], 0.964.

`CCCn1cc(C(=O)c2cccc3ccc(CC)cc23)c2ccccc21`: the Ratio pKi in experiment [1] came to 1.07; in experiment [2] it was 0.936.

Turning to `CCCCCn1c(C)c(C(=O)Cc2cccc(Cl)c2)c2ccccc21`, the Ratio pKi came out at 0.989 in experiment [1] and 1.01 in experiment [2].

Take `CCCc1ccc(C(=O)c2c(C)n(CCC)c3ccccc23)c2ccccc12`: the values for the Ratio pKi in experiment [1] and in experiment [2] were 1.09 and 0.919, respectively.

For the compound `CCCCCn1cc(C(=O)Cc2ccc(C)cc2)c2ccccc21`, the Ratio pKi in experiment [1] worked out at 0.925; in experiment [2], 1.08.

In the case of `CCCCCn1cc(C(=O)Cc2ccccc2Cl)c2ccccc21`, the Ratio pKi in experiment [1] was 1.01; in experiment [2] it was 0.993.

`CCCCCn1cc(C(=O)Cc2cccc(OC)c2)c2ccccc21`: the Ratio pKi is 0.907 in experiment [1] and 1.1 in experiment [2].

For `CCCCCn1cc(C(=O)Cc2cccc(Cl)c2)c2ccccc21`, the Ratio pKi in experiment [1] was 0.939; in experiment [2], 1.06.

Take `CCCCCn1c(C)c(C(=O)Cc2ccccc2Br)c2ccccc21`: the Ratio pKi stood at 0.963 in experiment [1] and 1.04 in experiment [2].

Consider `CCCCCn1c(C)c(C(=O)Cc2ccccc2C)c2ccccc21`, for which the values for the Ratio pKi in experiment [1] and in experiment [2] were 1.01 and 0.989, respectively.

Take `CCCn1cc(C(=O)c2ccc(OCC)c3ccccc23)c2ccccc21`: the Ratio pKi in experiment [1] came out at 1.07; in experiment [2], 0.934.

On to `CCCn1cc(C(=O)c2c(OC)ccc3ccccc23)c2ccccc21`, for which the figures for the Ratio pKi in experiment [1] and in experiment [2] were 1.31 and 0.764, respectively.

On to `CCCCCn1c(C)c(C(=O)c2cccc3ccccc23)c2ccccc21`, for which the Ratio pKi in experiment [1] is 1.06; in experiment [2] it was 0.94. Further, the Ki was 2.9 nM at Cannabinoid receptor 2 and 9.51 nM on Cannabinoid receptor 1.

`CCCCCn1c(C)c(C(=O)c2ccc(CCCC)c3ccccc23)c2ccccc21`: the Ratio pKi in experiment [1] turned out to be 1.11; in experiment [2] it was 0.901.

Turning to `CCCCCn1cc(C(=O)c2c(OC)ccc3ccccc23)c2ccccc21`, the Ratio pKi in experiment [1] came out at 1.27; in experiment [2], 0.788.

With `CCCn1cc(C(=O)c2cccc3cc(OC)ccc23)c2ccccc21`, the Ratio pKi came to 1.22 in experiment [1] and 0.82 in experiment [2].

Consider `CCCCCn1cc(C(=O)c2ccc(OCC)c3ccccc23)c2ccccc21`, for which the Ratio pKi in experiment [1] worked out at 0.957; in experiment [2], 1.04.

With `CCCCCn1cc(C(=O)Cc2ccc(Br)cc2)c2ccccc21`, the Ratio pKi in experiment [2] turned out to be 0.969.

For `CCCCCn1c(C)c(C(=O)c2cccc3ccc(OC)cc23)c2ccccc21`, the Ratio pKi in experiment [1] was 1.09; in experiment [2], 0.92.
